Data on four compounds can be found in paper PMC8482771 (ACS Omega, 2021).

Holding throughout (assay type): cell-based
For data set [1], the target named is T1, h-P2X7R (Homo sapiens, UniProt Q99572).
T1 sequence (Q99572 1-595): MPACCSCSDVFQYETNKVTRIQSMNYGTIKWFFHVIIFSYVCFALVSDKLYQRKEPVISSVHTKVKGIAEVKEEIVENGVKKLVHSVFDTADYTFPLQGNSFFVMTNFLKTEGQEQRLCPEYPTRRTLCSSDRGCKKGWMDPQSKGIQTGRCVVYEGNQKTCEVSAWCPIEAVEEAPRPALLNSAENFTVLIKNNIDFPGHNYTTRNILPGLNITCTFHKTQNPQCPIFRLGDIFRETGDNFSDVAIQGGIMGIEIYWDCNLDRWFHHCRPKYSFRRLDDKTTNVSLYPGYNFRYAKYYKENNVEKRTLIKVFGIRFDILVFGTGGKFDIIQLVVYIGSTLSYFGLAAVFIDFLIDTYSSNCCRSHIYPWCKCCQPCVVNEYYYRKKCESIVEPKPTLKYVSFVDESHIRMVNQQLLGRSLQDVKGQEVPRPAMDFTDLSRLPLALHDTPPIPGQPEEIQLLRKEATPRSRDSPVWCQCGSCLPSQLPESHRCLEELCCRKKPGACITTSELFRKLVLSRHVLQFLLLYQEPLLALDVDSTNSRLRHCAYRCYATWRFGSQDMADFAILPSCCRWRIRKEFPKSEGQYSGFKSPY

A short description of the next data set: Cytotoxicity assay. The note with it: human, nontransfected 1321N1 astrocytoma cells.
For another data set, the target named is h-P2X5 receptor (Homo sapiens, UniProt Q93086). Briefly: Ca2+ influx assay. The note with it: for inhibition at 50 µM: 1321-N1, read-out: h-P2X5 % inhibition.
Sequence of h-P2X5 receptor (Q93086 whole entry): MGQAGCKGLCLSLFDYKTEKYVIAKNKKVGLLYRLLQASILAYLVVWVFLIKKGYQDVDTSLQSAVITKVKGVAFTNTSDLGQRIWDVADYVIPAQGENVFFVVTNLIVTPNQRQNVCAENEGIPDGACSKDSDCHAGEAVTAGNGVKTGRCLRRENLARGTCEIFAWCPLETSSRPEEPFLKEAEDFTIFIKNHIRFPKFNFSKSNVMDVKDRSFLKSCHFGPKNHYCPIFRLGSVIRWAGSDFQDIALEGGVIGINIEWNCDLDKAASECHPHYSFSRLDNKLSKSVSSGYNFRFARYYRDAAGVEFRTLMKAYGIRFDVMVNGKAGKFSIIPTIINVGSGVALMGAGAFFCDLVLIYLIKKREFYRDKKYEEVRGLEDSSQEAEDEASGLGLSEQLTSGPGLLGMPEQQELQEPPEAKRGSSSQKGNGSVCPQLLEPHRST
Data set [2] concerns the target T1, h-P2X7R. Briefly: Ca2+ influx assay.
For data set [3], the target named is T2, h-P2X4R (Homo sapiens, UniProt Q99571).
T2 sequence (Q99571 1-388): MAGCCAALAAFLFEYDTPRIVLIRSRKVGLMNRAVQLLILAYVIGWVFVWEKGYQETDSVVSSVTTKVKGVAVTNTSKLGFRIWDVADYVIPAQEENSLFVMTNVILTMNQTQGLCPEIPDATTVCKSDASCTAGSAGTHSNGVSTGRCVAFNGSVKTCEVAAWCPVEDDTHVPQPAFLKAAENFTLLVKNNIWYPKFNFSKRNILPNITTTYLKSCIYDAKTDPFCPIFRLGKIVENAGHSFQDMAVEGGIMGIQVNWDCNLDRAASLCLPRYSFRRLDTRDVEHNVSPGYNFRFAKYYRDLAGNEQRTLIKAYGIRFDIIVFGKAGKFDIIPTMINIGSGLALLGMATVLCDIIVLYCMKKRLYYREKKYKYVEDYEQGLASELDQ
Briefly: Ca2+ influx assay.

Data set [4] concerns the target T3, h-P2X2R (Homo sapiens, UniProt Q9UBL9).
T3 sequence (Q9UBL9 1-471): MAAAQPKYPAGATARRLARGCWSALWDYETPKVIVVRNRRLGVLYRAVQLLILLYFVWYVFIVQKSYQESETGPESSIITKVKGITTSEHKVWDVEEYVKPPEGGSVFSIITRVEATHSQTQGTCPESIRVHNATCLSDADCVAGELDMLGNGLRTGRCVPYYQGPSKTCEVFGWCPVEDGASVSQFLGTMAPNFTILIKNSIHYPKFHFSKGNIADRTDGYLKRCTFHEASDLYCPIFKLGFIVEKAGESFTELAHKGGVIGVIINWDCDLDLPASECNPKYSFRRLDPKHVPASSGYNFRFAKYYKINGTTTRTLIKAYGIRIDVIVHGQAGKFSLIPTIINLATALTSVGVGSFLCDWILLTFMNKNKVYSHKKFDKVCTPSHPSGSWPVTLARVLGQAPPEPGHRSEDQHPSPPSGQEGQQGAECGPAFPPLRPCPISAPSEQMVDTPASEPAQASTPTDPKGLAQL
Briefly: Ca2+ influx assay.

The target in data set [5] is T3, h-P2X2R. Briefly: Mode of inhibition: ATP dose-response curve without and with inhibitor, h-P2X2R.
Data set [6] addresses T2, h-P2X4R. Briefly: Mode of inhibition: ATP dose-response curve without and with inhibitor, h-P2X4R.

In general, EC50 refers to the concentration that produces a half-maximal response. Consider “2′/3′-O-(4-benzoylbenzoyl)adenosine-5′-triphosphate [BzATP, reference compound]”, for which the concentration for a half-maximal effect (EC50) at h-P2X7R [1] (read-out: EC50 of BzATP-induced response, BzATP without inhibitor) was found to be 5.5 µM.
A word on the IC50: it is the concentration needed to halve the response being measured. Low values mean greater potency in that assay, high ones weaker potency in that assay. The inhibition is the share of the control response that was lost under treatment. For `CC(=NNC(=O)c1ccccc1NS(C)(=O)=O)c1ccc(N)cc1` [6h, N-(2-(2-(1-(4-Aminophenyl)ethylidene)hydrazinecarbonyl)phenyl)methanesulfonamide], in “Cytotoxicity assay”, the cytotoxicity at 24 h, 50 µM came to 18.5 ± 1.22%. Further, the IC50 against h-P2X5 receptor is over 50 µM; against h-P2X7R [2], 1.1 ± 0.21 µM; against h-P2X4R [3] it was over 50 µM; on h-P2X2R [4] it was 0.32 ± 0.01 µM. Besides, the inhibition at 50 µM on h-P2X5 receptor was found to be 10%; at h-P2X4R [3] (1321-N1, read-out: h-P2X4 % inhibition), 34%. Also, the “mechanism of receptor inhibition” value on h-P2X7R [1] and on h-P2X2R [5] (h-P2X2) was “negative allosteric modulator” throughout.
As to `CC(=NNC(=O)c1ccccc1NS(C)(=O)=O)c1sccc1Cl` [7e, N-(2-(2-(1-(3-Chlorothiophen-2-yl)ethylidene)hydrazinecarbonyl)phenyl)methanesulfonamide], in the data set “Cytotoxicity assay”, the cytotoxicity at 24 h, 50 µM is 8.33 ± 0.8%. The IC50 on h-P2X5 receptor is over 50 µM; on h-P2X7R [2] it was 1.7 ± 0.09 µM; on h-P2X4R [3] it was 1.61 ± 0.04 µM; against h-P2X2R [4], 2.17 ± 0.02 µM. Moreover, the inhibition at 50 µM on h-P2X5 receptor stood at 27%. The “mechanism of receptor inhibition” value on h-P2X4R [6] (h-P2X4R) is “negative allosteric modulator”.
Consider `Nc1ncnc2c1ncn2[C@@H]1O[C@H](COP(=O)(O)OP(=O)(O)OP(=O)(O)O)[C@@H](O)[C@H]1O` [ATP, adenosine triphosphate, reference compound], for which the half-maximal effective concentration (EC50) on h-P2X5 receptor came out at 10.6 µM; at h-P2X4R [3], 9.29 µM; on h-P2X4R [6], 2.59 µM; on h-P2X2R [4], 1.48 µM; at h-P2X2R [5], 1.08 µM.
